Measured values published in patent publication US20110263478A1, “SUR1 INHIBITORS FOR THERAPY” (priority 2008, published 2011).

How the values were obtained:
[1] = system: rats with percussion-TBI; assay: Percussion-TBI rats: lesion size and hippocampal histology; assay type: in vivo, rat; settings: 7 days post-TBI
Text: (§1) Young adult male Long-Evans rats, 240-280 gm, were studied. Rats were anesthetized (Ketamine and Xylazine) and physiological parameters including temperature and blood gases were maintained within appropriate physiological ranges. With the head fixed in a stereotaxic frame, a 6-mm circular craniectomy was created abutting the sagittal and lambdoidal sutures. A posterior location was chosen to emphasize damage to underlying hippocampus (Vink et al., 2001; Floyd et al., 2002). […] Sham controls underwent craniectomy without percussion.

[2] = system: rats with spinal cord injury (SCI); assay: Rat cervical SCI model: hemorrhage / extravasated blood in cord; assay type: in vivo; settings: 200 ng/h s.q.
Protocol: Constant infusion of a low-dose of drug was used to achieve sustained occupancy of only high-affinity receptors.
SCI injury model. This study was performed in accordance with the guidelines of the Institutional Animal Care and Use Committee. Adult female Long-Evans rats (275-350 gm) were anesthetized (Ketamine, 60 mg/kg plus Xylazine, 7.5 mg/kg, i.p.). The dura at C4-5 was exposed via a left hemilaminectomy. A hemi-cervical spinal cord contusion was created using a blunt force impactor (1.3-mm impactor head driven by a 10 gm weight dropped vertically 25 mm) (Soblo sky et al., 2001; Gensel et al., 2006). After SCI, animals were given 10 ml of glucose-free normal saline s.q. Rectal temperature was maintained at ˜37° C. using a servo-controlled warming blanket. Blood gases and serum glucose 10-15 min post-SCI were: pO2, 95±6 mm Hg; pCO2, 46±3 mm Hg; pH, 7.33±0.01; glucose 258±17 mg/dl in controls and pO2, 96±7 mm Hg; pCO2, 45±2 mm Hg; pH, 7.37±0.01; glucose 242±14 mg/dl in glibenclamide-treated animals.
Drug delivery. […] During the course of the project, slightly different formulations of drug were used, with the best results obtained using stock solutions made by placing 50 mg (or 25 mg) of drug into 10 ml DMSO, and infusion solutions made by placing 400 μl (or 800 μl) stock into 4.6 ml (or 4.2 ml) unbuffered saline (0.9% NaCl) and adjusting the pH to ˜8.5 using 0.1 N NaOH.
For in vivo gene suppression of SUR1, we used oligodeoxynucleotides that were phosphorothioated at 4 distal bonds to protect against endogenous nucleases (35). Within a few min of SCI, mini-osmotic pumps (Alzet 2002, 0.5 μl/h; Durect Corporation) with jugular vein catheters were implanted that delivered either scrambled sequence ODN (Scr-ODN) (5′-[…]-3′; SEQ ID NO:1) or antisense ODN (AS-ODN) (5′-[…]-3′; SEQ ID NO:2) (Yokoshiki et al., 1999) in PBS at a rate of 1 mg/rat/24 h.
Tissue blood. Rats were sacrificed at various times after SCI (n=5-11 rats/group), were perfused with heparinized saline to remove intravascular blood, and 5-mm segments of cord encompassing the lesion were homogenized and processed as described (Choudhri et al., 1997).

[3] = in humans; cited from earlier work
[4] = system: rats with percussion-TBI; assay: Percussion-TBI rats: extravasated blood (progressive secondary hemorrhage); assay type: in vivo, rat
Text: as §1

[5] = male, Long-Evans, rat, in vivo
Text: as §1

COc1ccc(Cl)cc1C(=O)NCCc1ccc(S(=O)(=O)NC(=O)NC2CCCCC2)cc1 [glibenclamide]
hippocampus on Nissl stained sections [1]: sparing of hippocampus, including sparing of neurons in CA1, CA3 and dentate gyrus regions
lesion area on coronal sections at epicenter of injury ([1]; control 8.2±1.3, P=0.025): 4.4±0.8 mm^2
hemorrhage in cord on inspection ([2]; 24 h post-SCI, vs vehicle): visibly less hemorrhage
extravasated blood in tissue homogenates ([2]; during the 24 h after SCI): little increase in extravasated blood
volume of distribution [3]: 0.2 L/kg
extravasated blood at later times ([4]; 6 and 24 hr post-TBI, vs vehicle): prevented further increases in blood
volume of blood in brain homogenate ([4]; ½ hr post-TBI): did not affect
time required to achieve 90% steady-state serum drug levels [5]: 3 h
